Test results reported in patent publication US4473646A, “Stereospecific asparaginases” (Development Finance Corp. of New Zealand, priority 1980, dated 1984).

Legend:
Format in all cases: biochemical
[1] = tested on: D-asparaginase THERMUS T-351 (ATCC No. 31,674); assay: Asparaginase properties: Km and inhibitors; conditions: for Inhibitors: loss of activity: inhibitor concentration not stated
[2] = molecular target: T1, L-asparaginase E. COLI (B) (for comparison) (Escherichia coli, UniProt P00805); assay: Asparaginase properties: Km and inhibitors (for comparison); conditions: inhibitor concentration not stated
T1 sequence (P00805 23-348): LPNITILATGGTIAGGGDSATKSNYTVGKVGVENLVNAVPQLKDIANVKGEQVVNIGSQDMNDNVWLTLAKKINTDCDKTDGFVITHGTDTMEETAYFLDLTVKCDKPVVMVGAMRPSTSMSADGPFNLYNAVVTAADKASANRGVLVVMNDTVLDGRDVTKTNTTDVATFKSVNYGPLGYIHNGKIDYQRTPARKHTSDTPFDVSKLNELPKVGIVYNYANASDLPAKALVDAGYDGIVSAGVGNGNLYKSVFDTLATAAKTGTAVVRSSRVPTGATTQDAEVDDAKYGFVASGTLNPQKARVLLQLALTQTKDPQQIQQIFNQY

[3] = tested on: L-asparaginase THERMUS T-351 (ATCC No. 31,674); assay: Asparaginase properties: inhibitors; conditions: inhibitor concentration not stated

Row | Km ([1]; substrate not given, enzyme specific only for D-asparagine) [mM] | SMILES | Inhibitors: loss of activity [1] | Inhibitors: loss of activity [2] | Inhibitors: loss of activity [3]
1 | 20 | NC(=O)C[C@@H](N)C(=O)O [D-asparagine] | – | – | –
2 | – | CC(N)=O [Acetamide] | 100% | No loss of activity | No loss of activity
3 | – | O=C(O)c1cc[c]([Hg][Cl])cc1 [pCMB] | No loss of activity | No loss of activity | 100%
